From patent US20010039255A1, “Use of alpha1A adrenoceptor agonists with alpha1B and alpha1D antagonism for the treatment of stress urinary incontinence” (priority 2000, published 2001)
Where two headings read alike, the source gives them in different places.

Legend:
[1] = target: T1, α1b (hamster receptor expressed in mouse fibroblasts) (Mesocricetus auratus, UniProt P18841); test: Radioligand binding with [3H]-prazosin, α1b (hamster receptor expressed in mouse fibroblasts)
T1 construct: expressed in transfected cells; host or cells: mouse fibroblasts
T1 sequence (P18841 1-515): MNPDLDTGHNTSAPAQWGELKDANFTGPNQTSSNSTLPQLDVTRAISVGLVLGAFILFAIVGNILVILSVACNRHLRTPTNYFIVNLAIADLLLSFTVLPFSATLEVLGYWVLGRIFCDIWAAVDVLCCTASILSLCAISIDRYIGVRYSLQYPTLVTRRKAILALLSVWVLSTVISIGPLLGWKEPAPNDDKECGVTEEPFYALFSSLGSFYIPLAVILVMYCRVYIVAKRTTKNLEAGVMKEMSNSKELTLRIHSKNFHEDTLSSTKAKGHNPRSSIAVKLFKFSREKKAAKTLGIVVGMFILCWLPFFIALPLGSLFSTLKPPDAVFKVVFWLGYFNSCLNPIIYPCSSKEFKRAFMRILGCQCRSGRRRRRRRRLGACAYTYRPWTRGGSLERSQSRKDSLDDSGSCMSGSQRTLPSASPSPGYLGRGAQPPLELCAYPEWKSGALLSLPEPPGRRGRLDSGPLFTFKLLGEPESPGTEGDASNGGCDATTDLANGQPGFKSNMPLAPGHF
Description: Radioligand Binding Ki (nM)
Exp. Ther. (1995), 274, 97-103.

[2] = target: T2, α1d (rat receptor expressed in mouse fibroblasts) (Rattus norvegicus, UniProt P23944); test: Radioligand binding with [3H]-prazosin, α1d (rat receptor expressed in mouse fibroblasts)
T2 construct: expressed in transfected cells; host or cells: mouse fibroblasts
T2 sequence (P23944 1-561): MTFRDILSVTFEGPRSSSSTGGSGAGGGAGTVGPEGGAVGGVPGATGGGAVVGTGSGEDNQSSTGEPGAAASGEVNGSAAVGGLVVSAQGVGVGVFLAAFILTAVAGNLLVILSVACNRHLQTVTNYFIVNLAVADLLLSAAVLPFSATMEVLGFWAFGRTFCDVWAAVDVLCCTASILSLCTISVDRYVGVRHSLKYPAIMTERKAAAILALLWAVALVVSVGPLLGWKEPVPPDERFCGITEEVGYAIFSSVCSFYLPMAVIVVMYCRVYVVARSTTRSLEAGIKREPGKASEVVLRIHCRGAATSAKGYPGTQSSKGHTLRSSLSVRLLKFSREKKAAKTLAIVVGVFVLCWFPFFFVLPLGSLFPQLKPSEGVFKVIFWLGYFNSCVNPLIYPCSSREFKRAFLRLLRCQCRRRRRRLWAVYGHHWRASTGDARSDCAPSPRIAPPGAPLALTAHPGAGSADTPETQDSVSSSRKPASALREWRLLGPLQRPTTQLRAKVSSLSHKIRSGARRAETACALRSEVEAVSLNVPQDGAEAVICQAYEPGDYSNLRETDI

[3] = target: T3, α1D adrenoceptor (rat aorta) (Rattus norvegicus, UniProt P23944); details: for α1D efficacy: percent of phenylephrine (100%) contraction; for α1D r: Schild plot regression correlation; for α1D slope: Schild plot slope; for type of antagonism at α1D: based on slope and regression (r) of Schild plot
T3 sequence (P23944 1-561): T2 sequence (P23944 1-561)

[4] = tested on: Female Beagle dogs; details: for IUP ED5mmHg: dose producing 5 mmHg increase in intraurethral pressure; for effect on intraurethral pressure and mean arterial pressure: increasing i.v. doses, dogs, FIGS. 1-4
Description: Female Beagle dogs (Marshall Farms, North Rose, N.Y.) greater that 2 years of age and weighing between 12 and 15 kg were used in these studies. At least 2 weeks prior to any agonist dosing, dogs were instrumented for the chronic measurement of arterial blood pressure by implanting a telemetry transducer/transmitter (TA11PA-C40, Data Sciences International, St. Paul, Minn.) into a carotid artery.
On the test day, dogs fasted since the previous afternoon were pre-anesthetized with thiopental sodium 15 mg/kg i.v. (Pentothal™, Abbott) and intubated. Anesthesia was maintained by allowing the dog to spontaneously breathe a mixture of isoflurane (2.5 to 3 volume %) and oxygen delivered by a Narkomed Standard anesthesia system (North American Drager, Telford, Pa.). An Abbocath-T™ i.v. catheter (18-G, Abbott Laboratories, Abbott Park, Ill.) was inserted into the cephalic vein for the administration of agonists. A telemetry receiver (RA1310, DataSciences) was placed under the head of each dog and was interfaced to a computerized data acquisition system (Modular Instruments Inc.(MI2), Malvern, Pa.) which allowed for the continuous calibrated recording of arterial blood pressure which was electronically filtered to determine its mean value (MAP).
Intraurethral pressure was monitored using a balloon catheter technique previously described (Brune et al., Drug Development Research 34:267-275,1995). Briefly, a 7 Fr catheter balloon catheter (41224-01, Abbott) was inserted into the urethral orifice and advanced approximately 15 cm until the tip was well inside the bladder. The balloon was then inflated with 1 ml of room air and the catheter slowly withdrawn until resistance (corresponding to the bladder neck) was evident. The balloon was then deflated and the catheter withdrawn an additional 2 cm. The balloon was then reinflated and its catheter port connected to a Gould Statham P23Dd pressure transducer interfaced to a computerized data acquisition system (Modular Instruments, Inc., Malvern, Pa.) for the measurement of intraurethral pressure (IUP). The MAP and IUP pressor responses to increasing iv doses of test agonists were obtained simultaneously. The pressor effects of each dose were allowed to return to baseline before the next dose was given.
The dose required to elicit significant and clinically meaningful changes in IUP (5 mm Hg) relative to the dose required to elicit a physiologically significant increase in blood pressure (20 mm Hg) is calculated.
IUP and MAP pressor effects of each agonist dose were expressed as the maximum net change in each pressure over pre-dose baseline levels. Subsequently, the effective doses required to produce a 5 mmHg increase in IUP (IUP ED5mmHg) and a 20 mmHg increase in MAP (MAP ED20mmHg) were estimated from the dose response data from each dog. Relative urethral versus vascular selectivity of each agonist in each dog was estimated using a ratio of these respective potency indices (MAP ED20mmHg/IUP ED5mmHg).

[5] = target: T3, α1D adrenoceptor (rat aorta); test: cell-based
[6] = target: T4, α1A (rat submaxillary gland) (Rattus norvegicus, UniProt P43140); test: Radioligand binding with [3H]-prazosin, α1A (rat submaxillary gland)
T4 construct: from tissue; host or cells: rat submaxillary gland
T4 sequence (P43140 1-466): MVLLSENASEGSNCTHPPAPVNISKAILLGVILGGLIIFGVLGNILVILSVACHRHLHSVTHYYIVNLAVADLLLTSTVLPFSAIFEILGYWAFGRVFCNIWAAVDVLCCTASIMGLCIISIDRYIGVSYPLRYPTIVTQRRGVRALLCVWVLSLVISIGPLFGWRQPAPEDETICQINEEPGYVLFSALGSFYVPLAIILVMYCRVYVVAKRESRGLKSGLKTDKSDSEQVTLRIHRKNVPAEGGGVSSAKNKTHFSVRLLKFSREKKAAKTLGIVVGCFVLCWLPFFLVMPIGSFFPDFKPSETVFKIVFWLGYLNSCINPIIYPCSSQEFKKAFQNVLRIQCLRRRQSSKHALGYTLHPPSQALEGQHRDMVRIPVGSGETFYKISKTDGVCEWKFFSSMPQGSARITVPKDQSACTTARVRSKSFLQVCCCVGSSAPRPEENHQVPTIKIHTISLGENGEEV

[7] = target: T5, α1B adrenoceptor (rat spleen) (Rattus norvegicus, UniProt P15823); details: for α1B r: Schild plot regression correlation; for α1B slope: Schild plot slope; for type of antagonism at α1B: based on slope and regression (r) of Schild plot
T5 sequence (P15823 1-515): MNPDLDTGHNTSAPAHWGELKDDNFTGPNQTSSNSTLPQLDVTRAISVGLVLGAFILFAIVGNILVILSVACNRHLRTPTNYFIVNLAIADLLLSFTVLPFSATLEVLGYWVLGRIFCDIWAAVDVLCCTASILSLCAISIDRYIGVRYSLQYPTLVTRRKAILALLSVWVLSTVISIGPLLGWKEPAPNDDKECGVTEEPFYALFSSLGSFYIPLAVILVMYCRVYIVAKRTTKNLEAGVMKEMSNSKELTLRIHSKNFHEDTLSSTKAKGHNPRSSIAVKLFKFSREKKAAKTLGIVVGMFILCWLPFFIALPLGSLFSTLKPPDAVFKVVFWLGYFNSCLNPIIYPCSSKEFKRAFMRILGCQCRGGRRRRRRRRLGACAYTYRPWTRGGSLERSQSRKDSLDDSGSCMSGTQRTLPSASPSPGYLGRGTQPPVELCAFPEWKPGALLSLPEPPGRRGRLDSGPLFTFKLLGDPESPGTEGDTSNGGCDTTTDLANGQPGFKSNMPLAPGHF
Description: A cumulative concentration protocol was employed.

[8] = target: T6, α1A adrenoceptor (rabbit urethra) (Oryctolagus cuniculus, UniProt O02824); test: Rabbit urethra α1A subtype tissue bath; type: cell-based
T6 sequence (O02824 1-466): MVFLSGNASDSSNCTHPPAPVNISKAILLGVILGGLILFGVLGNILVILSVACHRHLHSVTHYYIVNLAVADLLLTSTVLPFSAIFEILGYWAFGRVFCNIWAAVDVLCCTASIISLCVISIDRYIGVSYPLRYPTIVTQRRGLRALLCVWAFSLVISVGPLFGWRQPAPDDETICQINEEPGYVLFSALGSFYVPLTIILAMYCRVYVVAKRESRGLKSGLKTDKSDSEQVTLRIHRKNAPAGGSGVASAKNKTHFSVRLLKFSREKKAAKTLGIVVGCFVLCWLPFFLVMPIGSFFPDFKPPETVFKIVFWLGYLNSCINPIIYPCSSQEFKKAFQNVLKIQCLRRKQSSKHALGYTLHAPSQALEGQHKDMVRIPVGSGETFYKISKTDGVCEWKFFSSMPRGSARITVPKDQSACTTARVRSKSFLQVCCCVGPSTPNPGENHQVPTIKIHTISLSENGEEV
Description: Rabbit Urethra α1A Subtype
A cumulative concentration protocol was employed. […] Br. J. Pharmacol. 14, 48-58.

[9] = i.v., anesthetized dogs, mean ± S.E.M
[10] = i.v., anesthetized dogs, dose producing 20 mmHg increase in mean arterial pressure, mean ± S.E.M

Structure (SMILES)	Ki [2] [nM]	α1D efficacy ([3]; rat aorta) [%]	IUP ED5mmHg [4, 9] [nmol/kg]	effect on intraurethral pressure and mean arterial pressure [4]	Ki [6] [nM]	Ki [1] [nM]	α1B r ([7]; rat spleen)	α1B slope ([7]; rat spleen)	type of antagonism at α1B [7]	α1D r ([3]; rat aorta)	α1D slope ([3]; rat aorta)	type of antagonism at α1D [3]	MAP ED20mmHg [4, 10] [nmol/kg]	further results
CS(=O)(=O)Nc1c(O)ccc2c1CCCC2C1=NCCN1 (centres unmarked) [Compound A-61603, reference compound]	1560 ± 169	100	0.16 ± 0.02	dose-dependent increases										Ki ([1]; hamster receptor expressed in mouse fibroblasts, [3H]-prazosin, read-out: Radioligand Binding Ki α1b (Hamster)): 1210 nM; MAP ED20mmHg ([4]; female, Beagle, dog, in vivo, iv): 0.27 ± 0.05 nmol/kg; EC50 [5]: 2510 nM
CCS(=O)(=O)Nc1cccc(Cc2c[nH]cn2)c1 [Compound A-286666]	287 ± 41				137 ± 15	913 ± 135	0.9	0.81	competitive antagonist	0.9	0.93	competitive antagonist		
CCS(=O)(=O)Nc1cccc(Cc2c[nH]cn2)c1C [Compound A-286569]	840 ± 78		41.9 ± 6.2	dose-dependent increases	150 ± 32	> 10000	0.6	1.3	non-competitive antagonist	0.5	1.1	non-competitive antagonist	201.6 ± 67	
CC(N)C(O)c1ccccc1 (centres unmarked) [PPA, phenylpropanolamine, reference compound]		91	1092 ± 384	dose-dependent increases									331 ± 80	Radioligand Binding Ki α1A (Rat) ([6]; rat submaxillary gland, [3H]-prazosin): weak adrenergic ligand; α1b binding (in words) ([1]; hamster receptor expressed in mouse fibroblasts, [3H]-prazosin): weak adrenergic ligand; α1d binding (in words) ([2]; rat receptor expressed in mouse fibroblasts, [3H]-prazosin): weak adrenergic ligand; α1A agonist activity (in words) [8]: weak agonist; α1A efficacy ([8]; percent of phenylephrine (100%) contraction): 68%; α1B efficacy ([7]; percent of phenylephrine (100%) contraction, rat spleen): 34%; α1B agonist activity (in words; merged pD2/efficacy cell) ([7]; rat spleen): weak agonist; α1D agonist activity (in words; merged pD2/efficacy cell) ([3]; rat aorta): weak agonist; Selectivity ratio MAP ED20/IUP ED5 ([4]; calculated for each dog and then averaged): 0.4
